Measurements published in PMC7559125 (Pathogens, 2020).
pEC50, pIC50: −log10 of the molar value.

Assays:
[1] = test system: A/Yokohama/59/2016 (wild-type); experiment: microbe, parasite or virus in culture; details: Influenza A virus
[2] = test system: A/Sakai/23/2013 (wild-type); experiment: microbe, parasite or virus in culture; details: Influenza A virus
[3] = test system: A/Yokohama/40/2016 (wild-type); experiment: microbe, parasite or virus in culture; details: Influenza A virus
[4] = target: neuraminidase of A/Yokohama/40/2016 (wild-type) (Influenza A virus, UniProt A0A0X9QTS2)
[5] = target: neuraminidase of A/Sakai/23/2013 (wild-type) (Influenza A virus, UniProt W8DXJ8)
[6] = target: neuraminidase of A/Yokohama/59/2016 (wild-type) (Influenza A virus, UniProt A0A0X9QTS2)
[7] = test system: A/Sakai/23/2013 (wild-type); experiment: microbe, parasite or virus in culture; details: Influenza A virus, AX4
[8] = test system: A/Yokohama/59/2016 (wild-type); experiment: microbe, parasite or virus in culture; details: Influenza A virus, AX4
[9] = test system: A/Yokohama/40/2016 (wild-type); experiment: microbe, parasite or virus in culture; details: Influenza A virus, AX4

SMILES: O=C1c2c(O)c(=O)ccn2N([C@@H]2c3ccccc3SCc3c2ccc(F)c3F)[C@@H]2COCCN12 [Baloxavir, Baloxavir acid]
- pIC50 [1]: 7.96
- pIC50 [2]: 8.39
- pIC50 [3]: 8.21

SMILES: CCC(CC)[C@H](NC(C)=O)[C@@H]1[C@H](O)[C@@H](C(=O)O)C[C@H]1N=C(N)N.O.O.O [Peramivir, peramivir trihydrate]
- pIC50 [4]: 10.15
- pIC50 [5]: 11.00
- pIC50 [6]: 10.10

SMILES: NC(=O)c1nc(F)c[nH]c1=O [Favipiravir, favipiravir]
- pEC50 [7]: 5.18
- pEC50 [8]: 5.06
- pEC50 [9]: 5.00
